Measurements from patent US20240317740A1, “NOVEL COMPOUNDS AND THEIR USE” (Debiopharm International S.A., priority 2021, published 2024).
pIC50: −log10 of the molar value. Values after ≈ are worked out from the molar mass of the structure shown.

Key:
E. coli AG100 = experiment: Broth microdilution MIC assay; type: cell-based; details: Escherichia coli, CA-MHB, 1% DMSO, 35° C., 20 hours
Protocol: (§1) The antibacterial activity of Fabl inhibitors against select Gram-negative and Gram-positive bacterial species including susceptible and multi-drug resistant A. baumannii, E. coli, K. pneumoniae and S. aureus was tested using the broth microdilution Minimal Inhibitory Concentration (MIC) assay following CLSI guidelines for insoluble compounds. Test articles were serially diluted 2-fold in 100% dimethyl sulfoxide (DMSO) and then diluted 100-fold into cation adjusted Mueller-Hinton broth (CA-MHB) to achieve a 10-point test concentration range in 1% DMSO. Final compound concentrations were 0.016-8 μg/ml for S. aureus or 0.06-32 μg/ml for the Gram-negative species. MIC test plates were then prepared by transferring 100 μl of the final assay medium (test article in CA-MHB, 1% DMSO) into the appropriate wells of a sterile, low binding 96-well polystyrene plate. Direct colony suspension inoculums of the test strains were freshly prepared per CLSI guidelines, and the appropriate test wells were inoculated to achieve a final bacterial cell density of 5×10^5 CFU/ml. Growth control (no test article) and negative control (no bacterial inoculum) wells were also included. Exposure to light was minimized during all stages of assay preparation. MIC test plates were incubated at 35° C. for 20 hours. Bacterial growth was then determined by measuring the optical density at 600 nm (OD600) using a SpectraMax Plus plate-reader spectrophotometer.

[1] = tested on: A. baumannii ATCC BAA1605; experiment: Broth microdilution MIC assay; type: cell-based; details: Acinetobacter baumannii, ATCCBAA1605; CA-MHB, 1% DMSO, 35° C., 20 hours
Protocol: as §1

S. aureus ATCC 29213 = experiment: Broth microdilution MIC assay; type: cell-based; details: Staphylococcus aureus, ATCC29213; CA-MHB, 1% DMSO, 35° C., 20 hours
Protocol: as §1

A. baumannii FabI = A. baumannii FabI (Acinetobacter baumannii, UniProt D0CAD5); experiment: Inhibition of FabI enzyme (NADH consumption rate); type: biochemical; details: recombinant FabI, 30° C., pH 7.25
Protocol: Inhibition of Fabl enzyme from Acinetobacter baumannii and Escherichia coli was tested by measuring the rate of NADH consumption (Aabsorbance at 340 nm/min) at 30° C. in 96-well plate format using an automated plate reader in the presence or absence of the test compounds. The assay mixture contained 100 mM Tris-HCl, pH 7.25 (A. baumannii) or 7.5 (E. coli), 100 mM ammonium acetate, 0.02% (A. baumannii) or 0.05% (E. coli) Pluronic F-68, 25 μM crotonyl ACP, 50 μM NADH, […] recombinant Fabl protein, and 7.5% DMSO. Test compounds were added at concentrations ranging from 0.17 to 10,000 nM in a final well volume of 100 μl. This dose-response inhibitory assay was performed using a 10-point, serial dilution series for each test compound. IC50 values for each test compound were assigned from logistical sigmoid curve-fitting of the inhibition dose response curves.

K. pneumoniae A6030827 = experiment: Broth microdilution MIC assay; type: cell-based; details: Klebsiella pneumoniae, CA-MHB, 1% DMSO, 35° C., 20 hours
Protocol: as §1

Chain of A. baumannii FabI (D0CAD5 1-288): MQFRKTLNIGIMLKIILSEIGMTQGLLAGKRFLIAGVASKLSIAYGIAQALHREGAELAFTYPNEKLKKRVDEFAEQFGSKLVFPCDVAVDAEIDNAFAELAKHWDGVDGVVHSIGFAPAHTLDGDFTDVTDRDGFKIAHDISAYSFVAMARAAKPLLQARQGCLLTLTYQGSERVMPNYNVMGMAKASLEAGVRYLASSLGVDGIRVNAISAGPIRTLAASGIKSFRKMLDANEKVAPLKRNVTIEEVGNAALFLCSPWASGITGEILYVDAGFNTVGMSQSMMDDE

Structure (SMILES) | MIC (E. coli AG100) [µg/mL] | MIC [1] [µg/mL] | MIC (S. aureus ATCC 29213) [µg/mL] | pIC50 (A. baumannii FabI) | MIC (K. pneumoniae A6030827) [µg/mL]
Cc1oc2ccccc2c1CN(C)C(=O)/C=C/c1cnc2c(c1)CCC(N1CCCC1)C(=O)N2 (single isomer, unassigned) [Compound 25, (S*,E)-N-methyl-N-((2-methylbenzofuran-3-yl)methyl)-3-(8-oxo-7-(pyrrolidin-1-yl)-6,7,8,9-tetrahydro-5H-pyrido[2,3-b]azepin-3-yl)acrylamide] | 8 (≈ 17.4 µM) | ≤ 4 | ≤ 4 | > 8.00 | 
Cc1oc2ccccc2c1CN(C)C(=O)/C=C/c1cnc2c(c1)CCC(N1CC[C@@H](O)C1)C(=O)N2 (single isomer, unassigned) [Compound 28, (E)-3-((R*)-7-((R)-3-hydroxypyrrolidin-1-yl)-8-oxo-6,7,8,9-tetrahydro-5H-pyrido[2,3-b]azepin-3-yl)-N-methyl-N-((2-methylbenzofuran-3-yl)methyl)acrylamide] |  |  |  | > 8.00 | 
Cc1oc2ccccc2c1CN(C)C(=O)/C=C/c1cnc2c(c1)CCC(C)(N)C(=O)N2 (single isomer, unassigned) [Compound 39, (S*,E)-3-(7-amino-7-methyl-8-oxo-6,7,8,9-tetrahydro-5H-pyrido[2,3-b]azepin-3-yl)-N-methyl-N-((2-methylbenzofuran-3-yl)methyl)acrylamide] | ≤ 4 | ≤ 4 | ≤ 4 | > 8.00 | 
Cc1oc2ccccc2c1CN(C)C(=O)/C=C/c1cnc2c(c1)CCC(N1CC[C@@H](O)C1)C(=O)N2 (stereo in doubt) [Compound 28, (E)-3-((R*)-7-((R)-3-hydroxypyrrolidin-1-yl)-8-oxo-6,7,8,9-tetrahydro-5H-pyrido[2,3-b]azepin-3-yl)-N-methyl-N-((2-methylbenzofuran-3-yl)methyl)acrylamide] | 8 (≈ 16.9 µM) | ≤ 4 | ≤ 4 |  | 
CNC1CCc2cc(/C=C/C(=O)N(C)Cc3c(C)oc4ccccc34)cnc2NC1=O (centres unmarked) [Compound 11, (E)-N-methyl-3-(7-(methylamino)-8-oxo-6,7,8,9-tetrahydro-5H-pyrido[2,3-b]azepin-3-yl)-N-((2-methylbenzofuran-3-yl)methyl)acrylamide] | 8 (≈ 19.1 µM) | 8 (≈ 19.1 µM) | ≤ 4 | > 8.00 | 8 (≈ 19.1 µM)
Cc1oc2ccccc2c1CN(C)C(=O)/C=C/c1cnc2c(c1)CCC(N(C)C)C(=O)N2 (centres unmarked) [Compound 13, (E)-3-[7-(dimethylamino)-8-oxo-5,6,7,9-tetrahydropyrido[2,3-b]azepin-3-yl]-N-methyl-N-[(2-methylbenzofuran-3-yl)methyl]prop-2-enamide] | 16 (≈ 37 µM) | ≤ 4 | ≤ 4 | > 8.00 | 8 (≈ 18.5 µM)
Cc1oc2ccccc2c1CN(C)C(=O)/C=C/c1cnc2c(c1)CCC(N1CCCC1)C(=O)N2 (centres unmarked) [Compound 15, (E)-N-methyl-N-[(2-methylbenzofuran-3-yl)methyl]-3-(8-oxo-7-pyrrolidin-1-yl-5,6,7,9-tetrahydropyrido[2,3-b]azepin-3-yl)prop-2-enamide] | 16 (≈ 34.9 µM) | ≤ 4 | ≤ 4 | > 8.00 | 16 (≈ 34.9 µM)
Cc1oc2ccccc2c1CN(C)C(=O)/C=C/c1cnc2c(c1)N[C@H](C)[C@H](N)C(=O)N2 [Compound 23, (E)-3-((2R,3S)-3-amino-2-methyl-4-oxo-2,3,4,5-tetrahydro-1H-pyrido[2,3-b][1,4]diazepin-8-yl)-N-methyl-N-((2-methylbenzofuran-3-yl)methyl)acrylamide] | 8 (≈ 19.1 µM) | ≤ 4 | ≤ 4 | > 8.00 | 8 (≈ 19.1 µM)
